pIC50: −log10 of the molar value. Counter-ions that a name gives are not always drawn.

In general, pIC50 refers to −log10 of the IC50, conventionally taken in molar units.

For one assay, the target named is ROCK2 (Homo sapiens, UniProt O75116). The assay can be described thus: ROCK2 kinase inhibition assay (LABCHIP 3000 Reader, FITC peptide substrate).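 Also: rho kinase reaction read by separating phosphorylated from unphosphorylated peptide on chip, with inhibition of kinase activity computed per concentration across a dose-response series.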
Chain of ROCK2 (O75116 whole entry, species assumed): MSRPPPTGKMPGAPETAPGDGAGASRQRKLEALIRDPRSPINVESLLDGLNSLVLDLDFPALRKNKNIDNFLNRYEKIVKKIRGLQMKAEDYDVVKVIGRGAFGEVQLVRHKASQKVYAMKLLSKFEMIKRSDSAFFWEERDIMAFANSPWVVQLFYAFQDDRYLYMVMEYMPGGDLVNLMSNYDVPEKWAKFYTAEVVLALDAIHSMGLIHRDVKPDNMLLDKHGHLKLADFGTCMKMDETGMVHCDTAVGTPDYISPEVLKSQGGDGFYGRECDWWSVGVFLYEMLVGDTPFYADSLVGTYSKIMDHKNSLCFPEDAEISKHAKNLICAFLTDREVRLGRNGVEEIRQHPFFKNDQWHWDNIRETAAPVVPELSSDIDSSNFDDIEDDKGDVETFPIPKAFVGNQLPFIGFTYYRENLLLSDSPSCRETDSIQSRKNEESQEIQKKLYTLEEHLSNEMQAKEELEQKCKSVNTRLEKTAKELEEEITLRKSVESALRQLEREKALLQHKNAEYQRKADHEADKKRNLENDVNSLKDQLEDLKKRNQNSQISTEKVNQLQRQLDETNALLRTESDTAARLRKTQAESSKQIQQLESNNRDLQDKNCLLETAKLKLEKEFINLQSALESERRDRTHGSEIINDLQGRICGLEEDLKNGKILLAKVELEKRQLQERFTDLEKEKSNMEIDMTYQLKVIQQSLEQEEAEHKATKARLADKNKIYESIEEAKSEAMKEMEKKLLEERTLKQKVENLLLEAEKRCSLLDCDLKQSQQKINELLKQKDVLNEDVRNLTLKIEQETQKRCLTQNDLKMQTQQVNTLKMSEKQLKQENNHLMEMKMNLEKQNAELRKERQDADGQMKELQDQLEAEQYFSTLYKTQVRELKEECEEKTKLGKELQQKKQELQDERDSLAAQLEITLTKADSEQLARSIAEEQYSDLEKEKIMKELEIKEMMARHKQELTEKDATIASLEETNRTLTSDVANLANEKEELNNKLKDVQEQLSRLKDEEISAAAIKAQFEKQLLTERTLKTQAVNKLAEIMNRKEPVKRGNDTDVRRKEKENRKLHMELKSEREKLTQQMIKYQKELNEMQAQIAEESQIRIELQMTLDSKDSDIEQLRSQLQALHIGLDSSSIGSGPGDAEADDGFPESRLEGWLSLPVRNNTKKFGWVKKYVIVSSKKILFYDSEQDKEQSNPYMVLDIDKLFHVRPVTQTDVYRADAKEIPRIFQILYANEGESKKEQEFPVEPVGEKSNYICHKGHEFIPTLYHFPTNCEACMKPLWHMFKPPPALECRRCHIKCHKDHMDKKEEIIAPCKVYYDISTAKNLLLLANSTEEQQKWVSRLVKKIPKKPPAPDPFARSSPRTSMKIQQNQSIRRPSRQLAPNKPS
Details: not given
With `Cc1c(C(=O)NC2CC3(C2)CC(Oc2ccccc2C(N)=O)C3)cnn1-c1ccccc1` (stereo not shown) [Example 1, N-(6-(2-carbamoylphenoxy)spiro[3.3]heptan-2-yl)-5-methyl-1-phenyl-1H-pyrazole-4-carboxamide], the negative-log IC50 (pIC50) was 6.60 to 7.30.

In the case of `COc1cccc(-c2ccc(C(N)=O)c(OC3CC4(CC(NC(=O)c5cnn6cc(OCC(C)(C)O)ccc56)C4)C3)c2)c1` (stereo not shown) [Example 239, N-(6-((4-carbamoyl-3′-methoxy-[1,1′-biphenyl]-3-yl)oxy)spiro[3.3]heptan-2-yl)-6-(2-hydroxy-2-methylpropoxy)pyrazolo[1,5-a]pyridine-3-carboxamide], the pIC50 was 7.30 to 8.30.

`COc1ccc2c(c1)CCN2C(=O)NC1CC2(C1)CC(Oc1ncccc1C(N)=O)C2` [Example 17, N-((aR)-6-((3-carbamoylpyridin-2-yl)oxy)spiro[3.3]heptan-2-yl)-5-methoxyindoline-1-carboxamide] had a pIC50 of 6.60 to 7.30.

Consider `CN1CCN(CCCc2ccc(C(N)=O)c(OC3CC4(CC(NC(=O)c5cnn6cc(OCC(C)(C)O)ccc56)C4)C3)c2)CC1` (stereo not shown) [Example 266, N-(6-(2-carbamoyl-5-(3-(4-methylpiperazin-1-yl)propyl)phenoxy)spiro[3.3]heptan-2-yl)-6-(2-hydroxy-2-methylpropoxy)pyrazolo[1,5-a]pyridine-3-carboxamide], for which the pIC50 was 6.60 to 7.30.

The compound `CC(C)(O)COc1ccn2c(C(=O)NC3CC4(C3)CC(Oc3ncccc3C(N)=O)C4)cnc2c1` (stereo not shown) [Example 166, N-((αR)-6-((3-carbamoylpyridin-2-yl)oxy)spiro[3.3]heptan-2-yl)-7-(2-hydroxy-2-methylpropoxy) imidazo[1,2-a]pyridine-3-carboxamide] had a pIC50 of 7.30 to 8.30.

The compound `[H][C@]1(Oc2ncccc2C(N)=O)C[C@@]2(C[C@H](NC(=O)c3nn(C(C)(C)C#N)c4cc(-c5cnn(C(F)F)c5)ccc34)C2)C1` (stereo partly drawn) [Example 407, N-((aR)-6-((3-carbamoylpyridin-2-yl)oxy)spiro[3.3]heptan-2-yl)-1-(2-cyanopropan-2-yl)-6-(1-(difluoromethyl)-1H-pyrazol-4-yl)-1H-indazole-3-carboxamide, TFA] had a pIC50 above 8.30.

Regarding `NC(=O)c1cccnc1O[C@H]1CC2(C[C@H](NC(=O)c3cnn4cc(OC5CC(F)(F)C5)ccc34)C2)C1` (stereo partly drawn) [Example 350, N-((aR)-6-((3-carbamoylpyridin-2-yl)oxy)spiro[3.3]heptan-2-yl)-6-(3,3-difluorocyclobutoxy)pyrazolo[1,5-a]pyridine-3-carboxamide], the pIC50 was 7.30 to 8.30.

In turn, `Cn1nc(C(=O)NC2CC3(C2)CC(Oc2ncccc2C(N)=O)C3)cc1-c1ccccc1` (stereo not shown) [Example 396] gave a pIC50 of 7.30 to 8.30.

Compound `NC(=O)c1cccnc1O[C@H]1CC2(C[C@H](NC(=O)c3cnn4cc(OCCC(F)(F)F)ccc34)C2)C1` (stereo partly drawn) [Example 82, N-((aR)-6-((3-carbamoylpyridin-2-yl)oxy)spiro[3.3]heptan-2-yl)-6-(3,3,3-trifluoropropoxy) pyrazolo[1,5-a]pyridine-3-carboxamide, trifluoroacetate] gave a pIC50 above 8.30.

The compound `NC(=O)c1ccccc1OC1CC2(CC(NC(=O)OCc3ccccc3)C2)C1` [Example 14, benzyl ((aR)-6-(2-carbamoylphenoxy)spiro[3.3]heptan-2-yl)carbamate] showed a pIC50 of 5.60 to 6.60.

`CC(C)(C)c1cc(C(=O)N[C@H]2CC3(C2)C[C@H](Oc2ncccc2C(N)=O)C3)n(CCC(F)(F)F)n1` (stereo partly drawn) [Example 114, 2-((aR)-6-(3-(tert-butyl)-1-(3,3,3-trifluoropropyl)-1H-pyrazole-5-carboxamido)spiro [3.3]heptan-2-yl)oxy) nicotinamide, trifluoroacetate]: the pIC50 was 5.60 to 6.60.

`CC(C)(O)Cn1cc(-c2ccc3c(C(=O)N[C@H]4CC5(C4)C[C@H](Oc4ncccc4C(N)=O)C5)nnn3c2)cn1` (stereo partly drawn) [Example 365, N-((aR)-6-((3-carbamoylpyridin-2-yl)oxy)spiro[3.3]heptan-2-yl)-6-(1-(2-hydroxy-2-methylpropyl)-1H-pyrazol-4-yl)-[1,2,3]triazolo[1,5-a]pyridine-3-carboxamide]: the pIC50 was 7.30 to 8.30.

In the case of `[H][C@]1(Oc2cnccc2C(N)=O)C[C@@]2(C[C@H](NC(=O)c3cnn4cc(OCC(C)(C)O)ccc34)C2)C1` (stereo partly drawn) [Example 45, N-((aR)-6-((4-carbamoylpyridin-3-yl)oxy)spiro[3.3]heptan-2-yl)-6-(2-hydroxy-2-methylpropoxy)pyrazolo[1,5-a]pyridine-3-carboxamide], the pIC50 is 6.60 to 7.30.

On to `CC(C)(O)COc1ccc2c(C(=O)N[C@H]3CC4(C3)C[C@H](Oc3ncccc3C(N)=O)C4)nn(CC(C)(C)O)c2c1` (stereo partly drawn) [Example 127, N-((aR)-6-((3-carbamoylpyridin-2-yl)oxy)spiro[3.3]heptan-2-yl)-6-(2-hydroxy-2-methylpropoxy)-1-(2-hydroxy-2-methylpropyl)-1H-indazole-3-carboxamide, trifluoroacetate], for which the pIC50 is 7.30 to 8.30.

Compound `NC(=O)c1cccnc1O[C@H]1CC2(C[C@H](NC(=O)c3cnc4cc(N5CCS(=O)(=O)CC5)ccn34)C2)C1` (stereo partly drawn) [Example 362, N-((aR)-6-((3-carbamoylpyridin-2-yl)oxy)spiro[3.3]heptan-2-yl)-7-(1,1-dioxidothiomorpholino)imidazo[1,2-a]pyridine-3-carboxamide] gave a pIC50 of 6.60 to 7.30.

As to `NC(=O)c1cccnc1O[C@H]1CC2(C[C@H](NC(=O)c3cnn4c(C5CC5)c(OC(CF)CF)ccc34)C2)C1` (stereo partly drawn) [Example 341, N-((aR)-6-((3-carbamoylpyridin-2-yl)oxy)spiro[3.3]heptan-2-yl)-7-cyclopropyl-6-((1,3-difluoropropan-2-yl)oxy)pyrazolo[1,5-a]pyridine-3-carboxamide], the pIC50 was above 8.30.

In turn, `CC(C)(O)COc1ccc2c(C(=O)NC3CC4(C3)CC(Oc3cc(-c5cccc(C(F)(F)F)c5)ccc3C(N)=O)C4)cnn2c1` (stereo not shown) [Example 243, N-(6-((4-carbamoyl-3′-(trifluoromethyl)-[1,1′-biphenyl]-3-yl)oxy)spiro[3.3]heptan-2-yl)-6-(2-hydroxy-2-methylpropoxy)pyrazolo[1,5-a]pyridine-3-carboxamide] gave a pIC50 of 6.60 to 7.30.

`CC(C)(O)COc1ccc2c(C(=O)NC3CC4(C3)CC(Oc3cc(-c5cccnc5)ccc3C(N)=O)C4)cnn2c1` (stereo not shown) [Example 256, N-(6-(2-carbamoyl-5-(pyridin-3-yl)phenoxy)spiro[3.3]heptan-2-yl)-6-(2-hydroxy-2-methylpropoxy)pyrazolo[1,5-a]pyridine-3-carboxamide] gave a pIC50 of 7.30 to 8.30.

`CC(C)(O)COc1ccc2c(C(=O)NC3CC4(C3)CC(Oc3cc(C5CC5)ccc3C(N)=O)C4)cnn2c1` (stereo not shown) [Example 273, N-(6-(2-carbamoyl-5-cyclopropylphenoxy)spiro[3.3]heptan-2-yl)-6-(2-hydroxy-2-methylpropoxy)pyrazolo[1,5-a]pyridine-3-carboxamide] had a pIC50 of 7.30 to 8.30.

`CC(C)(O)COc1ccc2c(C(=O)NC3CC4(C3)CC(Oc3cc(OC(F)F)ccc3C(N)=O)C4)cnn2c1` (stereo not shown) [Example 219, N-(6-(2-carbamoyl-5-(difluoromethoxy)phenoxy)spiro[3.3]heptan-2-yl)-6-(2-hydroxy-2-methylpropoxy)pyrazolo[1,5-a]pyridine-3-carboxamide] had a pIC50 of 7.30 to 8.30.

For `CC(C)c1c(OCC(C)(C)O)ccc2c(C(=O)N[C@H]3CC4(C3)C[C@H](Oc3ncccc3C(N)=O)C4)cnn12` (stereo partly drawn) [Example 320, N-((aR)-6-((3-carbamoylpyridin-2-yl)oxy)spiro[3.3]heptan-2-yl)-6-(2-hydroxy-2-methylpropoxy)-7-isopropylpyrazolo[1,5-a]pyridine-3-carboxamide], the pIC50 is 7.30 to 8.30.

`CC(C)(O)COc1ccc2c(C(=O)NC3CC4(C3)CC(Oc3cc(-c5cc(F)c(F)c(F)c5)ccc3C(N)=O)C4)cnn2c1` (stereo not shown) [Example 283, N-(6-((4-carbamoyl-3′,4′,5′-trifluoro-[1,1′-biphenyl]-3-yl)oxy)spiro[3.3]heptan-2-yl)-6-(2-hydroxy-2-methylpropoxy)pyrazolo[1,5-a]pyridine-3-carboxamide]: the pIC50 was 6.60 to 7.30.

`CN(C)Cc1nc(C(=O)N[C@H]2CC3(C2)C[C@H](Oc2ncccc2C(N)=O)C3)c2ccc(OCc3ccccc3)cn12` (stereo partly drawn) [Example 416, 6-(benzyloxy)-N-((aR)-6-((3-carbamoylpyridin-2-yl)oxy)spiro[3.3]heptan-2-yl)-3-((dimethylamino)melhyl)imidazo[1,5-a]pyridine-1-carboxamide, TFA] had a pIC50 of 7.30 to 8.30.

Staying with this assay, now noted: read-out: ROCK2 Activity (ROCK2 IC50); 5 μM ATP, 1.5 μM peptide substrate, pH 7.5.
`NC(=O)c1cccnc1OC1CC2(CC(NC(=O)c3cc(Br)cc(C(F)(F)F)c3)C2)C1` [Example 427, 2-(((aR)-6-(3-bromo-5-(trifluoromethyl)benzamido)spiro[3.3]heptan-2-yl)oxy)nicotinamide]: the pIC50 was 7.30 to 8.30.

On to `NC(=O)c1cccnc1OC1CC2(CC(NC(=O)c3nc(C(F)F)n4cc(N5CCOCC5)ccc34)C2)C1` [Example 440, N-((aR)-6-((3-carbamoylpyridin-2-yl)oxy)spiro[3.3]heptan-2-yl)-3-(difluoromethyl)-6-morpholinoimidazo[1,5-a]pyridine-1-carboxamide], for which the negative logarithm of the IC50 (pIC50) was above 8.30.

For `CC(C)(C#N)n1nc(C(=O)NC2CC3(C2)CC(Oc2ncccc2C(N)=O)C3)c2ccc(F)cc21` [Example 401, N-((aR)-6-((3-carbamoylpyridin-2-yl)oxy)spiro[3.3]heptan-2-yl)-1-(2-cyanopropan-2-yl)-6-fluoro-1H-indazole-3-carboxamide, TFA], the negative logarithm of the IC50 (pIC50) is above 8.30.

As for `Cn1cc(-c2ccc3c(C(=O)NC4CC5(C4)CC(Oc4ncccc4C(N)=O)C5)nn(CC4(O)CCC4)c3c2)cn1` [Example 405, N-((aR)-6-((3-carbamoylpyridin-2-yl)oxy)spiro[3.3]heptan-2-yl)-1-((1-hydroxycyclobutyl)methyl)-6-(1-methyl-1H-pyrazol-4-yl)-1H-indazole-3-carboxamide, TFA], the pIC50 is above 8.30.

For the compound `C[C@@H]1CN(c2ccc3c(C(=O)NC4CC5(C4)CC(Oc4ncccc4C(N)=O)C5)nc(C(F)F)n3c2)C[C@H](C)O1` (stereo partly drawn) [Example 444, N-((aR)-6-((3-carbamoylpyridin-2-yl)oxy)spiro[3.3]heptan-2-yl)-3-(difluoromethyl)-6-((2S,6R)-2,6-dimethylmorpholino)imidazo[1,5-a]pyridine-1-carboxamide], the pIC50 was above 8.30.

These data come from patent publication US10829501B2 (BRISTOL-MYERS SQUIBB COMPANY, priority 2016, dated 2020).
